Data: ChEMBL document CHEMBL4507294, “Data for DCP probe MSD-CYP11B2” (2021)

Columns and labels:
[1] = biological target: Phosphorylase b kinase gamma catalytic chain, skeletal muscle/heart isoform (Homo sapiens) (UniProt Q16816); conditions: Compound concentration 1000.0 nM
[2] = biological target: Casein kinase II subunit alpha' (Homo sapiens) (UniProt P19784); conditions: Compound concentration 1000.0 nM
[3] = biological target: Protein kinase C delta type (Homo sapiens) (UniProt Q05655); conditions: Compound concentration 1000.0 nM
[4] = biological target: Dual specificity mitogen-activated protein kinase kinase 3 (Homo sapiens) (UniProt P46734); conditions: Compound concentration 1000.0 nM
[5] = biological target: MAP/microtubule affinity-regulating kinase 4 (Homo sapiens) (UniProt Q96L34); conditions: Compound concentration 1000.0 nM
Chain of MAP/microtubule affinity-regulating kinase 4 (Homo sapiens) (Q96L34 whole entry): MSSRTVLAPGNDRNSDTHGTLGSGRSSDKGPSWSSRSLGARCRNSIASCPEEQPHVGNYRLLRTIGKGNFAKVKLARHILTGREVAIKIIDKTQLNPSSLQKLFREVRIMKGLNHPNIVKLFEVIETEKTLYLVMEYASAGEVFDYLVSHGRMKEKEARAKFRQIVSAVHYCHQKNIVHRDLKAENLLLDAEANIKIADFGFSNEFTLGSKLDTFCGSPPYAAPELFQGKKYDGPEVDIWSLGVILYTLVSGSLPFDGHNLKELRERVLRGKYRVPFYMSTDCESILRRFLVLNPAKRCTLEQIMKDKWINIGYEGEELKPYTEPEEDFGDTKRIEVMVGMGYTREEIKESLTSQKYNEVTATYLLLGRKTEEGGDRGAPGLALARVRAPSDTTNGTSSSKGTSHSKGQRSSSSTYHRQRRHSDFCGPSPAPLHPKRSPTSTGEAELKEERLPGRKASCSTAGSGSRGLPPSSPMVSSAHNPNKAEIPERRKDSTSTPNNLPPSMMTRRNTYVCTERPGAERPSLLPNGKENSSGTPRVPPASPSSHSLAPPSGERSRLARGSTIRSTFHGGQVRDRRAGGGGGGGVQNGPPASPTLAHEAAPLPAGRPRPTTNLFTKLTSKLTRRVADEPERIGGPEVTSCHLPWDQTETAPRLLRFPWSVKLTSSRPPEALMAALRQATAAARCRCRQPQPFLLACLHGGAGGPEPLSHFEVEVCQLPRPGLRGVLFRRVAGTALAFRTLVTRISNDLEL

[6] = biological target: Histamine H1 receptor (Homo sapiens) (UniProt P35367); conditions: Compound concentration 10.0 uM
[7] = system: Tyrosine-protein kinase ABL1 (Homo sapiens), P00519 [H396P]; conditions: Compound concentration 1000.0 nM
[8] = biological target: Non-receptor tyrosine-protein kinase TNK1 (Homo sapiens) (UniProt Q13470); conditions: Compound concentration 1000.0 nM
[9] = biological target: Mitogen-activated protein kinase 8 (Homo sapiens) (UniProt P45983); conditions: Compound concentration 1000.0 nM
[10] = biological target: Tyrosine-protein kinase Srms (Homo sapiens) (UniProt Q9H3Y6); conditions: Compound concentration 1000.0 nM
[11] = biological target: 5-hydroxytryptamine receptor 6 (Homo sapiens, UniProt P50406); conditions: Compound concentration 10.0 uM
[12] = biological target: Serine/threonine-protein kinase Nek5 (Homo sapiens) (UniProt Q6P3R8); conditions: Compound concentration 1000.0 nM
[13] = biological target: Serine/threonine-protein kinase 10 (Homo sapiens) (UniProt O94804); conditions: Compound concentration 1000.0 nM
Chain of Serine/threonine-protein kinase 10 (Homo sapiens) (O94804 whole entry, looked up): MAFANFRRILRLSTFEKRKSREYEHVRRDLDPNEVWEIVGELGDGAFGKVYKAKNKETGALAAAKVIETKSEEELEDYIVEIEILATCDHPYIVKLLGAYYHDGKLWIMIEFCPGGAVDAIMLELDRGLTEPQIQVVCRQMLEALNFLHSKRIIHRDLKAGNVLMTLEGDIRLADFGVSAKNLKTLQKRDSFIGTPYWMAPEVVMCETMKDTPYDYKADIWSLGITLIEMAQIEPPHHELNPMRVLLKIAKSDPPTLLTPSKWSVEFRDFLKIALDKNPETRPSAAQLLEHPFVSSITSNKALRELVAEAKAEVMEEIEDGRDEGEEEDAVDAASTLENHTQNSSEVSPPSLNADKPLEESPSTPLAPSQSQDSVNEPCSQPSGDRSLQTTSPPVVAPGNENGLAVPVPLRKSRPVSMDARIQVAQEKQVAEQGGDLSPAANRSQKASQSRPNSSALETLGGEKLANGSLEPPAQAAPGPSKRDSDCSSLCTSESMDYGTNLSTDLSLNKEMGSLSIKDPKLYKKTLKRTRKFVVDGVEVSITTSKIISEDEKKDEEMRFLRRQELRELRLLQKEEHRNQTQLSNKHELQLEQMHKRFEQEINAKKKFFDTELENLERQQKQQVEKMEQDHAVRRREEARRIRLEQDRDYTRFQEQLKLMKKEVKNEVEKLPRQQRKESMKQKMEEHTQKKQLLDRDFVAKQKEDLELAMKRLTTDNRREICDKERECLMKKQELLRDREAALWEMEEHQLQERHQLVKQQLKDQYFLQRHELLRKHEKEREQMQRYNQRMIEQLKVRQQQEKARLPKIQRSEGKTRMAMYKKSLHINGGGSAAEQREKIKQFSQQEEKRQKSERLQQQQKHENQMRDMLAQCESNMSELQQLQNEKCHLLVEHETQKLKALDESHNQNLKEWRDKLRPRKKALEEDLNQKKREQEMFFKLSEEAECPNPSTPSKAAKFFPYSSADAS

[14] = biological target: Serine/threonine-protein kinase SBK1 (Homo sapiens) (UniProt Q52WX2); conditions: Compound concentration 1000.0 nM
Chain of Serine/threonine-protein kinase SBK1 (Homo sapiens) (Q52WX2 whole entry): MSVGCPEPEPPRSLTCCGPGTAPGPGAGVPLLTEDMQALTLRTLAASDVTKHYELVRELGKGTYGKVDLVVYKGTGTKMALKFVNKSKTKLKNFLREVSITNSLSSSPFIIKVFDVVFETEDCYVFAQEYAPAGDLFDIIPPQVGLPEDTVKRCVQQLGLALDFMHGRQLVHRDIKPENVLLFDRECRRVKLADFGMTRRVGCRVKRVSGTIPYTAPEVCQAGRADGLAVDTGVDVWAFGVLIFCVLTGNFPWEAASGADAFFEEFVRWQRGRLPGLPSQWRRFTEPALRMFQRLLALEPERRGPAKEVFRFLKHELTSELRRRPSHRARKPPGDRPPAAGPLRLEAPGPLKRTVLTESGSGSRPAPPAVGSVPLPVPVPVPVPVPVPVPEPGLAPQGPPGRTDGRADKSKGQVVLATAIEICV

[15] = biological target: Serine/threonine-protein kinase Nek10 (Homo sapiens) (UniProt Q6ZWH5); conditions: Compound concentration 1000.0 nM
[16] = biological target: Fibroblast growth factor receptor 2 (Homo sapiens) (UniProt P21802); conditions: Compound concentration 1000.0 nM
[17] = biological target: Dual specificity mitogen-activated protein kinase kinase 4 (Homo sapiens) (UniProt P45985); conditions: Compound concentration 1000.0 nM
[18] = biological target: Eukaryotic translation initiation factor 2-alpha kinase 1 (Homo sapiens) (UniProt Q9BQI3); conditions: Compound concentration 1000.0 nM
[19] = biological target: Serine/threonine-protein kinase 33 (Homo sapiens) (UniProt Q9BYT3); conditions: Compound concentration 1000.0 nM
[20] = biological target: cAMP-dependent protein kinase catalytic subunit PRKX (Homo sapiens) (UniProt P51817); conditions: Compound concentration 1000.0 nM
Chain of cAMP-dependent protein kinase catalytic subunit PRKX (Homo sapiens) (P51817 whole entry): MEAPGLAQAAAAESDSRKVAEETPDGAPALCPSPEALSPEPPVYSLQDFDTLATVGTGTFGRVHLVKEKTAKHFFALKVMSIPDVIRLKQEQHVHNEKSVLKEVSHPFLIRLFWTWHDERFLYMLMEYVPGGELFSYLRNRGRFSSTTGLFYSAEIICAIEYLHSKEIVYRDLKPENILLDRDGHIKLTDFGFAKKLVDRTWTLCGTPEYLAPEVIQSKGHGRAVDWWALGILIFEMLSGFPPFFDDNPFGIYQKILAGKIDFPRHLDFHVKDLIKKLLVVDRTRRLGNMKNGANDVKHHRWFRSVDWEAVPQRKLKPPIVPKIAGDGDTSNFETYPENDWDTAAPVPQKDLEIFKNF

[21] = system: Proto-oncogene tyrosine-protein kinase receptor Ret (Homo sapiens), P07949 [V804L]; conditions: Compound concentration 1000.0 nM
[22] = biological target: Ribosomal protein S6 kinase alpha-5 (Homo sapiens) (UniProt O75582); conditions: Compound concentration 1000.0 nM
[23] = biological target: Ephrin type-A receptor 6 (Homo sapiens) (UniProt Q9UF33); conditions: Compound concentration 1000.0 nM
[24] = biological target: Ephrin type-A receptor 2 (Homo sapiens) (UniProt P29317); conditions: Compound concentration 1000.0 nM
Chain of Ephrin type-A receptor 2 (Homo sapiens) (P29317 whole entry): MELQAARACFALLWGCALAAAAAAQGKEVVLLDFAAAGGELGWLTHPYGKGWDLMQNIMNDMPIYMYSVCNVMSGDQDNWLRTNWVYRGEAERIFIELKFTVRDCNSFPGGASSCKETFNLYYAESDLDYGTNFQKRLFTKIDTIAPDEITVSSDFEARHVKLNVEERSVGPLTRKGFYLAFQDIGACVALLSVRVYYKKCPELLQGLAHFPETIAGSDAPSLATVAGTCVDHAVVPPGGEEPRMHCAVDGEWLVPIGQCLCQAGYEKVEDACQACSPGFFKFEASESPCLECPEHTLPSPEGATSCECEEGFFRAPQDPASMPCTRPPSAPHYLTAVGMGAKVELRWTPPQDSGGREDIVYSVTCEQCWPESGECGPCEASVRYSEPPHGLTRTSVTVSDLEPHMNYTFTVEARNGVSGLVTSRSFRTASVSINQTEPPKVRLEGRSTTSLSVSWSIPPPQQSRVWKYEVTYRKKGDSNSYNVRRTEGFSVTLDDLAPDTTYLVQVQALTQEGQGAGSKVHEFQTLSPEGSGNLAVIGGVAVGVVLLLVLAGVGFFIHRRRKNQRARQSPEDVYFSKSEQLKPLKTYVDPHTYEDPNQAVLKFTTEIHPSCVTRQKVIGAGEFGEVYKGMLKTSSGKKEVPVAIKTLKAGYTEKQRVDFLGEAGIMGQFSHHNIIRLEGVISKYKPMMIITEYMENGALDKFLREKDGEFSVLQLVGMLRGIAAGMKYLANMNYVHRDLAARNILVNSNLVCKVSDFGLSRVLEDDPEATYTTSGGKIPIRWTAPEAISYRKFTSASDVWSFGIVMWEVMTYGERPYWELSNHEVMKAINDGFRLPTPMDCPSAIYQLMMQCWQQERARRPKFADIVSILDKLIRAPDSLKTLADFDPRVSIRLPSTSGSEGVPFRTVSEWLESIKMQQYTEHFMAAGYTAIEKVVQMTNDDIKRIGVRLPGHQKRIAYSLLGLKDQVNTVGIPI

[25] = biological target: Protein kinase C theta type (Homo sapiens) (UniProt Q04759); conditions: Compound concentration 1000.0 nM
[26] = biological target: BMP-2-inducible protein kinase (Homo sapiens) (UniProt Q9NSY1); conditions: Compound concentration 1000.0 nM
Chain of BMP-2-inducible protein kinase (Homo sapiens) (Q9NSY1 whole entry, looked up): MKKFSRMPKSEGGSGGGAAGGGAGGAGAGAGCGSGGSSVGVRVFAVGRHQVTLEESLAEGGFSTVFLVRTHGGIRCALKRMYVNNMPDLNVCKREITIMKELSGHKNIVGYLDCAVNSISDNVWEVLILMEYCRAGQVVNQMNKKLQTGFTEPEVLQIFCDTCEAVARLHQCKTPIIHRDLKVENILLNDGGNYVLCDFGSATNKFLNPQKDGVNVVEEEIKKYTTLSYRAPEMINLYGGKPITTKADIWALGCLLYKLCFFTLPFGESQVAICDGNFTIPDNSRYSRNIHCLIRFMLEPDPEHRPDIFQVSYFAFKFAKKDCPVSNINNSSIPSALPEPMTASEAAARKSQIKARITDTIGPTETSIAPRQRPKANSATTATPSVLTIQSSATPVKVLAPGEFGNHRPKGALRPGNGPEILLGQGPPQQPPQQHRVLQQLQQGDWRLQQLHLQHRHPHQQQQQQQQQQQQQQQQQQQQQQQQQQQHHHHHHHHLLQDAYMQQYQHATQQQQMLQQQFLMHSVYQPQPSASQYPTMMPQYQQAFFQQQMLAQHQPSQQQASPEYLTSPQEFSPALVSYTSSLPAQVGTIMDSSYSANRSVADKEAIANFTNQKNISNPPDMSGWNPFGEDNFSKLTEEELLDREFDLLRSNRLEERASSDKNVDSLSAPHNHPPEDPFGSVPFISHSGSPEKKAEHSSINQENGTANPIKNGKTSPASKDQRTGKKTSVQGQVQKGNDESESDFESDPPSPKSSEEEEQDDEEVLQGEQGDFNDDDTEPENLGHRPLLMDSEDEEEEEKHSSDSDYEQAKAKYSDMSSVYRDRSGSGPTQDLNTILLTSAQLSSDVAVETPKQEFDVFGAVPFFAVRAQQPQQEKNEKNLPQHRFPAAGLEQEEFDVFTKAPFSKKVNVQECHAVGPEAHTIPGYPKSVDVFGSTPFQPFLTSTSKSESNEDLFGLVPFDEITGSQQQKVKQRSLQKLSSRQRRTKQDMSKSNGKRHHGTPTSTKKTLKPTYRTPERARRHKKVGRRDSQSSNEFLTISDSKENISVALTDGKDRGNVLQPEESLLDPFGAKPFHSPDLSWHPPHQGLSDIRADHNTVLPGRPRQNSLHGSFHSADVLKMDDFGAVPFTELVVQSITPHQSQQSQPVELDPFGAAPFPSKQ

[27] = biological target: Serine/threonine-protein kinase PknB (Mycobacterium tuberculosis) (UniProt P9WI81); conditions: Compound concentration 1000.0 nM
[28] = biological target: T1, Muscarinic acetylcholine receptor M1 (Homo sapiens) (UniProt P11229); conditions: Compound concentration 10.0 uM
T1 sequence (whole entry): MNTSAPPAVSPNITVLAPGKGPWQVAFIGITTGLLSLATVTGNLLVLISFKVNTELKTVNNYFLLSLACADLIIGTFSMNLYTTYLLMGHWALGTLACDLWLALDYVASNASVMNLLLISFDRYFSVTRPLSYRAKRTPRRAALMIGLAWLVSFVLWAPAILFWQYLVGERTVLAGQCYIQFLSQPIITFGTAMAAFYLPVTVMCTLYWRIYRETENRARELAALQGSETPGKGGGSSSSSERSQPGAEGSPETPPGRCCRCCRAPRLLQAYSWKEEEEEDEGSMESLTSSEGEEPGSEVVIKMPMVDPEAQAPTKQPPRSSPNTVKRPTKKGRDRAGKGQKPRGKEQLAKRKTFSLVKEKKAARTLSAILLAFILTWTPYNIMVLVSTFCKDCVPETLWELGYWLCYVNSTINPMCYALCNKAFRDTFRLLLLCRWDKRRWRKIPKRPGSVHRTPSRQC

[29] = system: Epidermal growth factor receptor (Homo sapiens), P00533 [L858R,T790M]; conditions: Compound concentration 1000.0 nM
[30] = biological target: RAF proto-oncogene serine/threonine-protein kinase (Homo sapiens) (UniProt P04049); conditions: Compound concentration 1000.0 nM
[31] = system: Tyrosine-protein kinase ABL1 (Homo sapiens), P00519 [F317I]; conditions: Compound concentration 1000.0 nM
[32] = biological target: Serine/threonine-protein kinase STK11 (Homo sapiens) (UniProt Q15831); conditions: Compound concentration 1000.0 nM
[33] = system: Epidermal growth factor receptor (Homo sapiens), P00533 [UNDEFINED MUTATION]; conditions: Compound concentration 1000.0 nM
[34] = biological target: Proto-oncogene tyrosine-protein kinase Src (Homo sapiens) (UniProt P12931); conditions: Compound concentration 1000.0 nM
[35] = biological target: Serine/threonine-protein kinase 26 (Homo sapiens) (UniProt Q9P289); conditions: Compound concentration 1000.0 nM
[36] = biological target: Serine/threonine-protein kinase B-raf (Homo sapiens) (UniProt P15056); conditions: Compound concentration 1000.0 nM
[37] = biological target: Dual specificity mitogen-activated protein kinase kinase 2 (Homo sapiens) (UniProt P36507); conditions: Compound concentration 1000.0 nM
Chain of Dual specificity mitogen-activated protein kinase kinase 2 (Homo sapiens) (P36507 whole entry): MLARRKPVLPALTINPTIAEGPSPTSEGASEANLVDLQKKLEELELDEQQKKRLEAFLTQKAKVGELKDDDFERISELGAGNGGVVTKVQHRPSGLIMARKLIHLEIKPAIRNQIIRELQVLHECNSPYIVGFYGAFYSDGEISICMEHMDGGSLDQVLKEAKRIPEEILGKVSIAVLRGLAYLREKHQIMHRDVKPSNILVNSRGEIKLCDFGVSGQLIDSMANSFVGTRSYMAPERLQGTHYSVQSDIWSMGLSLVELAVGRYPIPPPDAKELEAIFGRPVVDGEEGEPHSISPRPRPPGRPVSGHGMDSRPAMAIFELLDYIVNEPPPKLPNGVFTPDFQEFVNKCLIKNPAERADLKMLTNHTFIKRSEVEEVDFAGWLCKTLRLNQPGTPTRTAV

[38] = biological target: Serine/threonine-protein kinase NLK (Homo sapiens) (UniProt Q9UBE8); conditions: Compound concentration 1000.0 nM
[39] = biological target: TRAF2 and NCK-interacting protein kinase (Homo sapiens) (UniProt Q9UKE5); conditions: Compound concentration 1000.0 nM

| SMILES | residual activity [1] [%] | residual activity [2] [%] | residual activity [3] [%] | residual activity [4] [%] | residual activity [5] [%] | inhibition [6] [%] | residual activity [7] [%] | residual activity [8] [%] | residual activity [9] [%] | residual activity [10] [%] | inhibition [11] [%] | residual activity [12] [%] | residual activity [13] [%] | residual activity [14] [%] | residual activity [15] [%] | residual activity [16] [%] | residual activity [17] [%] | residual activity [18] [%] | residual activity [19] [%] | residual activity [20] [%] | other results |
| --- | --- | --- | --- | --- | --- | --- | --- | --- | --- | --- | --- | --- | --- | --- | --- | --- | --- | --- | --- | --- | --- |
| FC(F)(F)c1ccc2c(c1)nc(-c1cccnc1)n2C1CC1 [MSD-CYP11B2-Negative-control] | 100 | 100 | 100 | 100 | 100 | 9.49 | 82 | 100 | 93 | 95 | 60.4 | 100 | 100 | 100 | 100 | 100 | 100 | 100 | 100 | 100 | residual activity [21]: 81%; residual activity [22]: 100%; residual activity [23]: 100%; residual activity [24]: 100%; residual activity [25]: 100%; residual activity [26]: 100%; residual activity [27]: 100%; inhibition [28]: -7.11%; residual activity [29]: 100%; residual activity [30]: 76%; residual activity [31]: 100%; residual activity [32]: 100%; residual activity [33]: 87%; residual activity [34]: 100%; residual activity [35]: 100%; residual activity [36]: 100%; residual activity [37]: 100%; residual activity [38]: 100%; residual activity [39]: 100% |
| CC(C)(O)c1cncc(-c2nc3ccc(F)cc3n2C2CC2)c1 [MSD-CYP11B2] | 100 | 100 | 100 | 100 | 100 | 9.54 | 85 | 100 | 100 | 100 | 15.6 | 100 | 100 | 100 | 100 | 100 | 100 | 100 | 100 | 100 | residual activity [21]: 100%; residual activity [22]: 100%; residual activity [23]: 100%; residual activity [24]: 100%; residual activity [25]: 100%; residual activity [26]: 100%; residual activity [27]: 100%; inhibition [28]: -4.49%; residual activity [29]: 92%; residual activity [30]: 83%; residual activity [31]: 100%; residual activity [32]: 98%; residual activity [33]: 100%; residual activity [34]: 100%; residual activity [35]: 100%; residual activity [36]: 100%; residual activity [37]: 100%; residual activity [38]: 100%; residual activity [39]: 100% |
